The source made the active and inactive calls. How the calls were made is not given here.
Test system: rodent lifetime carcinogenesis bioassay, tumor incidence TD50
Test: carcinogenic potency in animals, long-term in vivo studies, CPDB compilation (AID 1745844)
[1] = mouse, strain B6AKF1, females, oral dosing, site: any site (literature study), lesion: several types, types named in the paper, dosed 76 weeks, study length 76 weeks
[2] = mouse, strain B6AKF1, females, oral dosing, site: liver, lesion: hepatoma, dosed 76 weeks, study length 76 weeks
[3] = mouse, strain B6AKF1, males, oral dosing, site: any site (literature study), lesion: several types, types named in the paper, dosed 76 weeks, study length 76 weeks
[4] = mouse, strain B6AKF1, males, oral dosing, site: liver, lesion: hepatoma, dosed 76 weeks, study length 76 weeks
[5] = mouse, strain B6AKF1, males, oral dosing, site: lung, lesion: adenoma, dosed 76 weeks, study length 76 weeks
[6] = mouse, strain B6C3F1, females, oral dosing, site: any site (literature study), lesion: several types, types named in the paper, dosed 76 weeks, study length 76 weeks
[7] = mouse, strain B6C3F1, females, oral dosing, site: liver, lesion: hepatoma, dosed 76 weeks, study length 76 weeks
[8] = mouse, strain B6C3F1, females, oral dosing, site: lung, lesion: adenoma, dosed 76 weeks, study length 76 weeks
[9] = mouse, strain B6C3F1, males, oral dosing, site: any site (literature study), lesion: several types, types named in the paper, dosed 76 weeks, study length 76 weeks
[10] = mouse, strain B6C3F1, males, oral dosing, site: liver, lesion: hepatoma, dosed 76 weeks, study length 76 weeks

Cc1ccc(OP(=O)(Oc2ccc(C)cc2)Oc2ccc(C)cc2)cc1
carcinogen call (mouse, strain B6C3F1, females, in feed, site: any site (literature study), lesion: several types, types named in the paper, dosed 104 weeks, study length 105 weeks): negative (inactive) | TD50 (mouse, strain B6C3F1, females, in feed, site: lung, lesion: alveolar/bronchiolar adenoma + alveolar/bronchiolar carcinoma, dosed 104 weeks, study length 105 weeks): 2310 mg/kg/day | TD50 (mouse, strain B6C3F1, males, in feed, site: Harderian gland, lesion: adenoma, dosed 104 weeks, study length 105 weeks): 184 mg/kg/day (inactive) | TD50 (mouse, strain B6C3F1, males, in feed, site: any site (literature study), lesion: several types, types named in the paper, dosed 104 weeks, study length 105 weeks): 159 mg/kg/day | TD50 (mouse, strain B6C3F1, males, in feed, site: liver, lesion: hepatocellular adenoma + hepatoblastoma + hepatocellular carcinoma, dosed 104 weeks, study length 105 weeks): 968 mg/kg/day | TD50 (mouse, strain B6C3F1, males, in feed, site: lung, lesion: alveolar/bronchiolar adenoma + alveolar/bronchiolar carcinoma, dosed 104 weeks, study length 105 weeks): 187 mg/kg/day | TD50 (rat, strain Fischer 344, females, in feed, site: all sites, lesion: mononuclear-cell leukemia, dosed 104 weeks, study length 104 weeks): 35 mg/kg/day (inactive) | TD50 (rat, strain Fischer 344, females, in feed, site: any site (literature study), lesion: several types, types named in the paper, dosed 104 weeks, study length 104 weeks): 21.6 mg/kg/day | carcinogen call (rat, strain Fischer 344, males, in feed, site: any site (literature study), lesion: several types, types named in the paper, dosed 104 weeks, study length 104 weeks): negative (inactive) | TD50 (rat, strain Fischer 344, males, in feed, site: liver, lesion: hepatocellular adenoma + hepatoblastoma + hepatocellular carcinoma, dosed 104 weeks, study length 104 weeks): 143 mg/kg/day

Cn1cc(C(=O)[C@@H]2CCc3nc[nH]c3C2)c2ccccc21
carcinogen call (mouse, strain B6C3F1, females, by gavage, site: liver, lesion: hepatocellular adenoma, dosed 104 weeks, study length 104 weeks): negative (inactive) | TD50 (mouse, strain B6C3F1, females, by gavage, site: liver, lesion: hepatocellular carcinoma, dosed 104 weeks, study length 104 weeks): 1040 mg/kg/day (inactive) | carcinogen call (mouse, strain B6C3F1, females, by gavage, site: lung, lesion: adenoma, dosed 104 weeks, study length 104 weeks): negative (inactive) | carcinogen call (mouse, strain B6C3F1, females, by gavage, site: lung, lesion: carcinoma, dosed 104 weeks, study length 104 weeks): negative (inactive) | carcinogen call (mouse, strain B6C3F1, males, by gavage, site: liver, lesion: hepatocellular adenoma, dosed 104 weeks, study length 104 weeks): negative (inactive) | carcinogen call (mouse, strain B6C3F1, males, by gavage, site: liver, lesion: hepatocellular carcinoma, dosed 104 weeks, study length 104 weeks): negative (inactive) | carcinogen call (mouse, strain B6C3F1, males, by gavage, site: lung, lesion: adenoma, dosed 104 weeks, study length 104 weeks): negative (inactive) | carcinogen call (mouse, strain B6C3F1, males, by gavage, site: lung, lesion: carcinoma, dosed 104 weeks, study length 104 weeks): negative (inactive) | carcinogen call (rat, strain Fischer 344, females, by gavage, site: liver, lesion: hepatocellular adenoma, dosed 104 weeks, study length 104 weeks): negative (inactive) | carcinogen call (rat, strain Fischer 344, males, by gavage, site: liver, lesion: hepatocellular adenoma, dosed 104 weeks, study length 104 weeks): negative (inactive)

CN(C)C(=O)NC1CC2CC1C1CCCC21 (centres undefined)
carcinogen call [1]: negative (inactive) | carcinogen call [2]: negative (inactive) | carcinogen call (mouse, strain B6AKF1, females, oral dosing, site: lung, lesion: adenoma, dosed 76 weeks, study length 76 weeks): negative (inactive) | carcinogen call [3]: negative (inactive) | carcinogen call [4]: negative (inactive) | carcinogen call [5]: negative (inactive) | TD50 [6]: 1230 mg/kg/day (inactive) | carcinogen call [7]: negative (inactive) | TD50 [8]: 1230 mg/kg/day (inactive) | TD50 [9]: 259 mg/kg/day (inactive) | TD50 [10]: 359 mg/kg/day (inactive) | carcinogen call (mouse, strain B6C3F1, males, oral dosing, site: lung, lesion: several types, types named in the paper, dosed 76 weeks, study length 76 weeks): negative (inactive)

[N]=O
carcinogen call (mouse, strain ICR/Jcl, females, inhaled, site: lung, lesion: adenoma, dosed 126 weeks, study length 126 weeks): negative (inactive)

OCC(CO)N[C@H]1C[C@](O)(CO)[C@@H](O)[C@H](O)[C@H]1O
carcinogen call (mouse, strain Charles River CD1, females, by gavage, site: liver, lesion: hepatocellular adenoma, dosed 101 weeks, study length 101 weeks): negative (inactive) | carcinogen call (mouse, strain Charles River CD1, females, by gavage, site: lung, lesion: alveolar/bronchiolar adenoma, dosed 101 weeks, study length 101 weeks): negative (inactive) | carcinogen call (mouse, strain Charles River CD1, males, by gavage, site: liver, lesion: hepatocellular adenoma, dosed 83 weeks, study length 83 weeks): negative (inactive) | carcinogen call (mouse, strain Charles River CD1, males, by gavage, site: liver, lesion: hepatocellular carcinoma, dosed 83 weeks, study length 83 weeks): negative (inactive) | TD50 (mouse, strain Charles River CD1, males, by gavage, site: lung, lesion: alveolar/bronchiolar adenoma, dosed 83 weeks, study length 83 weeks): 1370 mg/kg/day (inactive) | carcinogen call (rat, strain F344/DuCrj, females, by gavage, site: liver, lesion: one or several types, types not named, dosed 104 weeks, study length 104 weeks): negative (inactive) | TD50 (rat, strain F344/DuCrj, females, by gavage, site: mammary gland, lesion: fibroadenoma, dosed 104 weeks, study length 104 weeks): 119 mg/kg/day (inactive) | TD50 (rat, strain F344/DuCrj, males, by gavage, site: liver, lesion: hepatocellular adenoma, dosed 104 weeks, study length 104 weeks): 575 mg/kg/day (inactive) | TD50 (rat, strain F344/DuCrj, males, by gavage, site: liver, lesion: hepatocellular carcinoma, dosed 104 weeks, study length 104 weeks): 1740 mg/kg/day (inactive) | TD50 (rat, strain F344/DuCrj, males, by gavage, site: testis, lesion: interstitial-cell tumor, dosed 104 weeks, study length 104 weeks): 9.27 mg/kg/day (inactive)

Nc1ccc2oc3ccccc3c2c1
carcinogen call (mouse, strain (C57 x IF)F1, females, in feed, site: liver, lesion: several types, types named in the paper, dosed 52 weeks, study length 58 weeks): positive | TD50 (mouse, strain (C57 x IF)F1, males, in feed, site: liver, lesion: malignant hepatoma, dosed 52 weeks, study length 67 weeks): 8.67 mg/kg/day | TD50 (mouse, strain (C57 x IF)F1, males, in feed, site: liver, lesion: several types, types named in the paper, dosed 52 weeks, study length 67 weeks): 5.73 mg/kg/day | TD50 (mouse, strain (C57 x IF)F1, males, in feed, site: urinary bladder, lesion: carcinoma, dosed 52 weeks, study length 67 weeks): 22.3 mg/kg/day

Nc1ccc(-c2ccccc2)cc1O
carcinogen call (rat, strain Not specified, females, in feed, site: liver, lesion: one or several types, types not named, dosed 43 weeks, study length 65 weeks): negative (inactive)

O=S(=O)(Oc1ccc(Cl)cc1Cl)c1ccccc1
TD50 [1]: 867 mg/kg/day (inactive) | carcinogen call [2]: negative (inactive) | TD50 (mouse, strain B6AKF1, females, oral dosing, site: lung, lesion: several types, types named in the paper, dosed 76 weeks, study length 76 weeks): 1920 mg/kg/day (inactive) | TD50 [3]: 1680 mg/kg/day (inactive) | carcinogen call [4]: negative (inactive) | TD50 [5]: 866 mg/kg/day (inactive) | TD50 [6]: 929 mg/kg/day (inactive) | carcinogen call [7]: negative (inactive) | TD50 [8]: 1920 mg/kg/day (inactive) | TD50 [9]: 218 mg/kg/day (inactive) | TD50 [10]: 266 mg/kg/day (inactive) | TD50 (mouse, strain B6C3F1, males, oral dosing, site: lung, lesion: adenoma, dosed 76 weeks, study length 76 weeks): 924 mg/kg/day (inactive)

CN(CCCC(O)c1cccnc1)N=O (centres undefined)
TD50 (rat, strain Fischer 344, males, in drinking water, site: adrenal medulla, lesion: one or several types, types not named, dosed 112 weeks, study length 112 weeks): 1.39 mg/kg/day | TD50 (rat, strain Fischer 344, males, in drinking water, site: liver, lesion: hepatoma, dosed 112 weeks, study length 112 weeks): 5.86 mg/kg/day | TD50 (rat, strain Fischer 344, males, in drinking water, site: liver, lesion: several types, types named in the paper, dosed 112 weeks, study length 112 weeks): 7.25 mg/kg/day | TD50 (rat, strain Fischer 344, males, in drinking water, site: lung, lesion: adenocarcinoma, dosed 112 weeks, study length 112 weeks): 0.409 mg/kg/day | TD50 (rat, strain Fischer 344, males, in drinking water, site: lung, lesion: adenoma, dosed 112 weeks, study length 112 weeks): 1.38 mg/kg/day | TD50 (rat, strain Fischer 344, males, in drinking water, site: lung, lesion: adenosquamous carcinoma, dosed 112 weeks, study length 112 weeks): 0.577 mg/kg/day | TD50 (rat, strain Fischer 344, males, in drinking water, site: lung, lesion: several types, types named in the paper, dosed 112 weeks, study length 112 weeks): 0.103 mg/kg/day | TD50 (rat, strain Fischer 344, males, in drinking water, site: pancreas, exocrine, lesion: acinar-cell adenoma, dosed 112 weeks, study length 112 weeks): 2.14 mg/kg/day | TD50 (rat, strain Fischer 344, males, in drinking water, site: pancreas, exocrine, lesion: adenocarcinoma, acinar or ductal, dosed 112 weeks, study length 112 weeks): 1.09 mg/kg/day | TD50 (rat, strain Fischer 344, males, in drinking water, site: pancreas, exocrine, lesion: several types, types named in the paper, dosed 112 weeks, study length 112 weeks): 0.668 mg/kg/day

Clc1ccc(-c2ccc(Cl)c(Cl)c2Cl)c(Cl)c1Cl
TD50 (rat, strain Sherman COBS, females, in feed, site: liver, lesion: hepatocellular carcinoma, dosed 89 weeks, study length 95 weeks): 18.3 mg/kg/day | TD50 (rat, strain Sherman COBS, females, in feed, site: liver, lesion: neoplastic nodule, dosed 89 weeks, study length 95 weeks): 1.76 mg/kg/day | TD50 (rat, strain Sherman COBS, females, in feed, site: liver, lesion: several types, types named in the paper, dosed 89 weeks, study length 95 weeks): 1.04 mg/kg/day | TD50 (rat, strain Sprague-Dawley, females, in feed, site: liver, lesion: cholangioma, dosed 104 weeks, study length 104 weeks): 98.2 mg/kg/day | TD50 (rat, strain Sprague-Dawley, females, in feed, site: liver, lesion: hepatocellular adenoma, dosed 104 weeks, study length 104 weeks): 6.43 mg/kg/day | TD50 (rat, strain Sprague-Dawley, females, in feed, site: liver, lesion: hepatocellular carcinoma, dosed 104 weeks, study length 104 weeks): 41.4 mg/kg/day | TD50 (rat, strain Sprague-Dawley, females, in feed, site: liver, lesion: several types, types named in the paper, dosed 104 weeks, study length 104 weeks): 5.51 mg/kg/day | TD50 (rat, strain Sprague-Dawley, males, in feed, site: liver, lesion: hepatocellular adenoma, dosed 104 weeks, study length 104 weeks): 24.8 mg/kg/day | TD50 (rat, strain Sprague-Dawley, males, in feed, site: liver, lesion: hepatocellular carcinoma, dosed 104 weeks, study length 104 weeks): 121 mg/kg/day | TD50 (rat, strain Sprague-Dawley, males, in feed, site: liver, lesion: several types, types named in the paper, dosed 104 weeks, study length 104 weeks): 20 mg/kg/day | TD50 (rat, strain Sprague-Dawley, males, in feed, site: thyroid gland, lesion: follicular-cell adenoma, dosed 104 weeks, study length 104 weeks): 11.4 mg/kg/day | TD50 (rat, strain Sprague-Dawley, males, in feed, site: thyroid gland, lesion: follicular-cell carcinoma, dosed 104 weeks, study length 104 weeks): 232 mg/kg/day | TD50 (rat, strain Sprague-Dawley, males, in feed, site: thyroid gland, lesion: several types, types named in the paper, dosed 104 weeks, study length 104 weeks): 10.3 mg/kg/day | TD50 (rat, strain Wistar, males, in feed, site: liver, lesion: hepatocellular carcinoma, dosed 116 weeks, study length 116 weeks): 5.39 mg/kg/day

Reference: PubChem BioAssay AID1745844 (Carcinogenic Potency Database (CPDB), 2022)
